Reference: patent US9028845B2, “Chimeric immunomodulatory compounds and methods of using the same-IV” (Dynavax Technologies Corporation, priority 2001, dated 2015)
“Also recorded” adds a separate entry of the source. Marks after values point to notes of the source that are not given here.

Legend:
human PBMCs = assay: Human PBMC cytokine response assay (IFN-γ and IFN-α in cell-free medium by ELISA), with or without cPLGA; format: cell-based;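 for IFN-α (pg/ml) mean: 20 µg/mL compound for 24 hours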;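 for IFN-γ (pg/ml) mean: 20 µg/mL compound for 24 hours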
PBMCs = assay: Human PBMC proliferation assay (3H-thymidine incorporation); format: cell-based; conditions: Experiment A; for mean cpm: 2 μg/ml
[1] = system: hepatitis B surface antigen (HBsAg); conditions: in vivo
CD19+ B cells = assay: Human B cell proliferation assay (3H-thymidine incorporation); conditions: 2 μg/ml; for cpm1 / cpm2 / cpm3 / mean cpm / mean of both: B cells
[2] = donor 28066, 20 ug/ml, 24 h, + PLGA = premixed with 100 μg/ml cPLGA
[3] = donor 28067, 20 ug/ml, 24 h, + PLGA = premixed with 100 μg/ml cPLGA
[4] = donor 28068, 20 ug/ml, 24 h, + PLGA = premixed with 100 μg/ml cPLGA
[5] = mean of Donors 1-2, 20 μg/ml, 24 h
[6] = mean of Donors 9-12, 20 μg/ml, 24 h
[7] = mean of donors 110, 112, 119, 120, Table 14
[8] = mean of donors 28065-28068, 20 ug/ml, 24 h, + PLGA = premixed with 100 μg/ml cPLGA
[9] = mean of donors 28185-28188, Table 15

Substance: 5′-TCGTCGA-3′-HEG-5′-ACGTTCG-3′-HEG-5′-AGATGAT-3′ [Compound C-8]
- IFN-α (pg/ml) Donor 1 (human PBMCs; Donor 1, 20 μg/ml, 24 h): 1609 pg/mL
- IFN-γ (pg/ml) Donor 1 (human PBMCs; Donor 1, 20 μg/ml, 24 h): 1916 pg/mL
- IFN-α (pg/ml) Donor 2 (human PBMCs; Donor 2, 20 μg/ml, 24 h): 44 pg/mL
- IFN-γ (pg/ml) Donor 2 (human PBMCs; Donor 2, 20 μg/ml, 24 h): 696 pg/mL
- IFN-α Donor 9 (human PBMCs; Donor 9, 20 μg/ml, 24 h): 58
- IFN-γ Donor 9 (human PBMCs; Donor 9, 20 μg/ml, 24 h): 312
- IFN-α Donor 10 (human PBMCs; Donor 10, 20 μg/ml, 24 h): 30
- IFN-γ Donor 10 (human PBMCs; Donor 10, 20 μg/ml, 24 h): 35
- IFN-α Donor 11 (human PBMCs; Donor 11, 20 μg/ml, 24 h): 18
- IFN-γ Donor 11 (human PBMCs; Donor 11, 20 μg/ml, 24 h): 31
- IFN-α Donor 12 (human PBMCs; Donor 12, 20 μg/ml, 24 h): 49
- IFN-γ Donor 12 (human PBMCs; Donor 12, 20 μg/ml, 24 h): 28
- IFN-α (human PBMCs; Table 9, donor 28089): 21 pg/mL
- IFN-γ (human PBMCs; Table 9, donor 28089): 62 pg/mL
- IFN-α (human PBMCs; Table 9, donor 28090): 124 pg/mL
- IFN-γ (human PBMCs; Table 9, donor 28090): 52 pg/mL
- IFN-α (human PBMCs; Table 9, donor 28098): 314 pg/mL
- IFN-γ (human PBMCs; Table 9, donor 28098): 205 pg/mL
- IFN-α (human PBMCs; Table 9, donor 28099): 362 pg/mL
- IFN-γ (human PBMCs; Table 9, donor 28099): 116 pg/mL
- IFN-α mean (human PBMCs; Table 9, mean of donors): 205 pg/mL
- IFN-γ mean (human PBMCs; Table 9, mean of donors): 109 pg/mL
- IFN-α (human PBMCs; Table 10, donor 28042): 20 pg/mL
- IFN-γ (human PBMCs; Table 10, donor 28042): 468 pg/mL
- IFN-α (human PBMCs; Table 10, donor 28043): 51 pg/mL
- IFN-γ (human PBMCs; Table 10, donor 28043): 939 pg/mL
- IFN-α (human PBMCs; Table 10, donor 28044): 32 pg/mL
- IFN-γ (human PBMCs; Table 10, donor 28044): 1000 pg/mL
- IFN-α (human PBMCs; Table 10, donor 28045): 5 pg/mL
- IFN-γ (human PBMCs; Table 10, donor 28045): 234 pg/mL
- IFN-α mean (human PBMCs; Table 10, mean of donors): 27 pg/mL
- IFN-γ mean (human PBMCs; Table 10, mean of donors): 660 pg/mL
- IFN-α (human PBMCs; Table 11, donor 28042): 78 pg/mL
- IFN-γ (human PBMCs; Table 11, donor 28042): 623 pg/mL
- IFN-α (human PBMCs; Table 11, donor 28043): 25 pg/mL
- IFN-γ (human PBMCs; Table 11, donor 28043): 753 pg/mL
- IFN-α (human PBMCs; Table 11, donor 28044): 52 pg/mL
- IFN-γ (human PBMCs; Table 11, donor 28044): 646 pg/mL
- IFN-α (human PBMCs; Table 11, donor 28045): 256 pg/mL
- IFN-γ (human PBMCs; Table 11, donor 28045): 604 pg/mL
- IFN-α mean (human PBMCs; Table 11, mean of donors): 103 pg/mL
- IFN-γ mean (human PBMCs; Table 11, mean of donors): 656 pg/mL
- IFN-α (human PBMCs; Table 13, donor 28156): 102 pg/mL
- IFN-γ (human PBMCs; Table 13, donor 28156): 1612 pg/mL
- IFN-α (human PBMCs; Table 13, donor 28157): 755 pg/mL
- IFN-γ (human PBMCs; Table 13, donor 28157): 742 pg/mL
- IFN-α (human PBMCs; Table 13, donor 28158): 61 pg/mL
- IFN-γ (human PBMCs; Table 13, donor 28158): 340 pg/mL
- IFN-α (human PBMCs; Table 13, donor 28159): 160 pg/mL
- IFN-γ (human PBMCs; Table 13, donor 28159): 197 pg/mL
- IFN-α mean (human PBMCs; Table 13, mean of donors): 270 pg/mL
- IFN-γ mean (human PBMCs; Table 13, mean of donors): 723 pg/mL
- IFN-α (human PBMCs; donor 110, Table 14): 196 pg/mL
- IFN-γ (human PBMCs; donor 110, Table 14): 1152 pg/mL
- IFN-α (human PBMCs; donor 112, Table 14): 30 pg/mL
- IFN-γ (human PBMCs; donor 112, Table 14): 540 pg/mL
- IFN-α (human PBMCs; donor 119, Table 14): 264 pg/mL
- IFN-γ (human PBMCs; donor 119, Table 14): 136 pg/mL
- IFN-α (human PBMCs; donor 120, Table 14): 42 pg/mL
- IFN-γ (human PBMCs; donor 120, Table 14): 48 pg/mL
- IFN-γ (pg/ml) 28065 (human PBMCs; donor 28065 (high background), 20 ug/ml, 24 h, + PLGA = premixed with 100 μg/ml cPLGA, 1000 = outside assay limits): 1000 pg/mL
- IFN-α (pg/ml) 28065 (human PBMCs; donor 28065, 20 ug/ml, 24 h, + PLGA = premixed with 100 μg/ml cPLGA): 123 pg/mL
- IFN-α (pg/ml) 28066 (human PBMCs; [2]): 6 pg/mL
- IFN-γ (pg/ml) 28066 (human PBMCs; [2]): 19 pg/mL
- IFN-α (pg/ml) 28067 (human PBMCs; [3]): 96 pg/mL
- IFN-γ (pg/ml) 28067 (human PBMCs; [3]): 56 pg/mL
- IFN-α (pg/ml) 28068 (human PBMCs; [4]): 358 pg/mL
- IFN-γ (pg/ml) 28068 (human PBMCs; [4]): 419 pg/mL
- IFN-a (human PBMCs; donor 28185, Table 15): 196 pg/mL
- IFN-g (human PBMCs; donor 28185, Table 15): 154 pg/mL
- IFN-a (human PBMCs; donor 28186, Table 15): 31 pg/mL
- IFN-g (human PBMCs; donor 28186, Table 15): 25 pg/mL
- IFN-a (human PBMCs; donor 28187, Table 15): 202 pg/mL
- IFN-g (human PBMCs; donor 28187, Table 15): 123 pg/mL
- IFN-a (human PBMCs; donor 28188, Table 15): 4 pg/mL
- IFN-g (human PBMCs; donor 28188, Table 15): 9 pg/mL
- IFN-α (pg/ml) mean (human PBMCs; [5]): 827 pg/mL
- IFN-γ (pg/ml) mean (human PBMCs; [5]): 1306 pg/mL
- IFN-α mean (human PBMCs; [6]): 39
- IFN-γ mean (human PBMCs; [6]): 102
- IFN-α (pg/ml) mean (human PBMCs; [7]): 133 pg/mL
- IFN-γ (pg/ml) mean (human PBMCs; [7]): 469 pg/mL
- IFN-α (pg/ml) mean (human PBMCs; [8]): 146 pg/mL
- IFN-γ (pg/ml) mean (human PBMCs; [8]): 373 pg/mL
- IFN-a (pg/ml) mean (human PBMCs; [9]): 108 pg/mL
- IFN-g (pg/ml) mean (human PBMCs; [9]): 78 pg/mL
- IFN-a (pg/ml) ×2 (human PBMCs; mean ×2, Table 15): 217 pg/mL
- IFN-g (pg/ml) ×4 (human PBMCs; mean ×4, Table 15): 311 pg/mL
- immunomodulatory activity (IFN-γ / IFN-α secretion), in words (human PBMCs; used alone (no cPLGA)): more active than other CG-containing CICs; also recorded: most active CICs
- cpm1 (PBMCs; Donor 146, 2 μg/ml): 47202 cpm
- cpm2 (PBMCs; Donor 146, 2 μg/ml): 40790 cpm
- cpm3 (PBMCs; Donor 146, 2 μg/ml): 44811 cpm
- mean cpm (PBMCs; Donor 146 mean): 44268 cpm
- cpm1 (PBMCs; Donor 147, 2 μg/ml): 38845 cpm
- cpm2 (PBMCs; Donor 147, 2 μg/ml): 39733 cpm
- cpm3 (PBMCs; Donor 147, 2 μg/ml): 27981 cpm
- mean cpm (PBMCs; Donor 147 mean): 35520 cpm
- mean of both (PBMCs; mean of Donors 146 and 147, 2 μg/ml): 39894 cpm
- Anti-HBsAg (mIU/ml) post-first, Mean [1]: 22 mIU/ml
- Anti-HBsAg (mIU/ml) post-second, Mean [1]: 9294** mIU/ml
- B cell proliferation, in words (CD19+ B cells; 48 h plus 8 h 3H-thymidine pulse): cause B cells to proliferate
- cpm1 (CD19+ B cells; Donor 146, Experiment A): 23815 cpm
- cpm2 (CD19+ B cells; Donor 146, Experiment A): 30066 cpm
- cpm3 (CD19+ B cells; Donor 146, Experiment A): 22969 cpm
- mean cpm (CD19+ B cells; Donor 146 mean, Experiment A): 25617 cpm
- cpm1 (CD19+ B cells; Donor 147, Experiment A): 20914 cpm
- cpm2 (CD19+ B cells; Donor 147, Experiment A): 22370 cpm
- cpm3 (CD19+ B cells; Donor 147, Experiment A): 23659 cpm
- mean cpm (CD19+ B cells; Donor 147 mean, Experiment A): 22314 cpm
- cpm1 (CD19+ B cells; donor 121, Experiment B): 2604 cpm
- cpm2 (CD19+ B cells; donor 121, Experiment B): 12078 cpm
- cpm3 (CD19+ B cells; donor 121, Experiment B): 17696 cpm
- mean cpm (CD19+ B cells; donor 121 mean, Experiment B): 10793 cpm
- cpm1 (CD19+ B cells; donor 194, Experiment B): 9333 cpm
- cpm2 (CD19+ B cells; donor 194, Experiment B): 9391 cpm
- cpm3 (CD19+ B cells; donor 194, Experiment B): 7602 cpm
- mean cpm (CD19+ B cells; donor 194 mean, Experiment B): 8775 cpm
- mean of both (CD19+ B cells; mean of Donors 146 and 147, Experiment A): 23966 cpm
- mean of both (CD19+ B cells; mean of donors 121 and 194, Experiment B): 9784 cpm
